# Assay results reported in patent US7524862B2 (Boehringer Ingelheim International GmbH, priority 2004, dated 2009).
# pIC50: −log10 of the molar value.
# Molecular target: T1, human hMCH-1R (Homo sapiens, UniProt Q99705)
# T1 construct: expressed in transfected cells; host or cells: CHO/Galpha16 cells (stably transfected), membranes
# Assay: MCH-1 receptor binding test
# Details: membranes from CHO/Galpha16 cells stably transfected with hMCH-1R; 125I-MCH
# Method: Membranes from CHO/Galpha16 cells stably transfected with human hMCH-1R are resuspended using a syringe (needle 0.6×25 mm) and diluted in test buffer (50 mM HEPES, 10 mM MgCl2, 2 mM EGTA, pH 7.00; 0.1% bovine serum albumin (protease-free), 0.021% bacitracin, 1 μg/mL aprotinin, 1 μg/mL leupeptin and 1 μM phosphoramidone) to a concentration of 5 to 15 μg/mL. […] After the incubation, the reaction is filtered using a cell harvester through 0.5% PEI treated fiberglass filters (GF/B, Unifilter Packard). The membrane-bound radioactivity retained on the filter is then determined after the addition of scintillator substance (Packard Microscint 20) in a measuring device (TopCount of Packard). […] The analysis of the concentration binding curve is carried out on the assumption of one receptor binding site.
# T1 sequence (Q99705 whole entry): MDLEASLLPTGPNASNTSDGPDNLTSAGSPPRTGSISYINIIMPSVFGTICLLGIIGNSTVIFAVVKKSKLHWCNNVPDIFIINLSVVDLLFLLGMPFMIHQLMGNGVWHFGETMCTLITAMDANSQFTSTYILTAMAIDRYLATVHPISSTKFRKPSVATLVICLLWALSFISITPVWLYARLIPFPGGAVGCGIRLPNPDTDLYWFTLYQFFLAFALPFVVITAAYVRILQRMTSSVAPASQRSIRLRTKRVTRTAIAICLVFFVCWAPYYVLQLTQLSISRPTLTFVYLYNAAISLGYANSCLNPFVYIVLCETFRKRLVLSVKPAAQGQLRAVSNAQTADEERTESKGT
row,SMILES,pIC50
1,"Cc1cc(N2CCC(C)CC2)nc2ccc(C#Cc3ccc(-c4ccc(Cl)cc4)cn3)cc12 [Example 1.43, 6-[5-(4-chlorophenyl)pyridin-2-ylethynyl]-4-methyl-2-(4-methylpiperidin-1-yl)quinoline]",6.61
2,"Cc1cc(NC(C)C)nc2ccc(C#Cc3ccc(-c4ccc(Cl)cc4)cn3)cc12 [Example 1.44, {6-[5-(4-chlorophenyl)pyridin-2-ylethnyl]-4-methylquinolin-2-yl}isopropylamine]",8.17
